Measurements: ChEMBL document CHEMBL1128704, “(R)-11-hydroxy- and (R)-11-hydroxy-10-methylaporphine: synthesis, pharmacology, and modeling of D2A and 5-HT1A receptor interactions” (J Med Chem, 1995)

How the values were obtained:
[1] = biological target: T1, 5-hydroxytryptamine receptor 1A (Rattus norvegicus, UniProt P19327); assay: (§1) Ability to inhibit 5-HT sensitive,forskolin-stimulated adenylyl cyclase(FSC) activity in rat hippocampal membranes mediated through 5-hydroxytryptamine 1A receptor; type: functional, cell membranes
T1 sequence (P19327 whole entry): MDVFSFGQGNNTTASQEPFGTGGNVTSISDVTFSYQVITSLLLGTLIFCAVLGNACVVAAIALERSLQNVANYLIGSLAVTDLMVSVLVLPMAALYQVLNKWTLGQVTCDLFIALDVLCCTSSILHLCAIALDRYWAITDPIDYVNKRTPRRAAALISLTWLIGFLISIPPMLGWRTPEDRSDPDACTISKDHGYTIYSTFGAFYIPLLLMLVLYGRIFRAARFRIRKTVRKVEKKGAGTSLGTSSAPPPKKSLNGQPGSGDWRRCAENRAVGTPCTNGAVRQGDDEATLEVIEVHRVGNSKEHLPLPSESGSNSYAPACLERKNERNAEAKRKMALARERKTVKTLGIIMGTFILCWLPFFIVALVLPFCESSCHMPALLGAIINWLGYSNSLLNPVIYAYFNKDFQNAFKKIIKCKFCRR

[2] = biological target: T2, 5-hydroxytryptamine receptor 1A (Rattus norvegicus) (UniProt P19327); assay: as §1; type: functional, cell membranes; conditions: concentration not given here
T2 sequence (whole entry): T1 sequence (P19327 whole entry)

[3] = biological target: T1, 5-hydroxytryptamine receptor 1A; assay: Ability to displace [3H]8-OH-DPAT binding to rat hippocampal 5-hydroxytryptamine 1A receptor; type: tissue-based, Hippocampus
D(2) dopamine receptor = D(2) dopamine receptor (Homo sapiens, UniProt P14416); assay: Ability to displace [3H]raclopride binding to cloned human Dopamine receptor D2A
Sequence of D(2) dopamine receptor (P14416 whole entry): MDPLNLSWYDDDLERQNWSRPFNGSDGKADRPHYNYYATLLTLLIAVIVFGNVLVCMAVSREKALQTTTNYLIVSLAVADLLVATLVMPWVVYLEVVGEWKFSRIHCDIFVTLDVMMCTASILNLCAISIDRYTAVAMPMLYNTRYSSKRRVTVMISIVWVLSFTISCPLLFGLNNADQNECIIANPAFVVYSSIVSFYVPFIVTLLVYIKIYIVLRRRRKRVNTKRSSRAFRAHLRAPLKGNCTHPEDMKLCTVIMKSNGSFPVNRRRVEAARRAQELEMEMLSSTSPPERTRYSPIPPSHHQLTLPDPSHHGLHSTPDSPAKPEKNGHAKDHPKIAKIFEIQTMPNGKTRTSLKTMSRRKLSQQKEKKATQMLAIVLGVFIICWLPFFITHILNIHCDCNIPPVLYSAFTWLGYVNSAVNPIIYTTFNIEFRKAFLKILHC

D(1A) dopamine receptor = D(1A) dopamine receptor (Rattus norvegicus, UniProt P18901); assay: Ability to displace [3H]SCH-23390 binding to rat striatal Dopamine receptor D1
Sequence of D(1A) dopamine receptor (P18901 whole entry): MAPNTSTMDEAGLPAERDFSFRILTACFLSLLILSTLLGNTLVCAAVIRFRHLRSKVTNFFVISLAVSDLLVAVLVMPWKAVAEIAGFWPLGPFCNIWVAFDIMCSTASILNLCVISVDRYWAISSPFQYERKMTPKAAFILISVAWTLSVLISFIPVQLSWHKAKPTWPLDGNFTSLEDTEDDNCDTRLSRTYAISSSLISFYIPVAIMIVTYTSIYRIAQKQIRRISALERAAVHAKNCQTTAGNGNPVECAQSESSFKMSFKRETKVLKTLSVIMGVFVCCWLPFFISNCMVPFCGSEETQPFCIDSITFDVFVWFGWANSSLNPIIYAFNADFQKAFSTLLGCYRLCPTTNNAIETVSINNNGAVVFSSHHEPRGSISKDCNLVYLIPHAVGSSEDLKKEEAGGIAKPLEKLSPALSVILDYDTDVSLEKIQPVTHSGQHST

Row | Structure (SMILES) | EC50 [1] | inhibition [2] | Ki [3] | Ki (D(2) dopamine receptor) | Ki (D(1A) dopamine receptor)
1 | CN1CCc2cccc3c2[C@H]1Cc1cccc(O)c1-3 | 5.2 µM | 60% | 0.0096 µM | 0.0585 µM | 0.0204 µM
2 | Cc1ccc2c(c1O)-c1cccc3c1[C@@H](C2)N(C)CC3 | 0.055 µM | 102% | 0.00045 µM | 1.07 µM | 0.382 µM
